# Laboratory results reported in PMC6208284 (Phytotherapy Research, 2018).
# Legend:
# [1] = tested on: Leishmania tarentolae promastigotes (LtP); experiment: Superoxide radical detection in LtP by CMH/ESR; type: cell-based; conditions: for CM● formation (superoxide radicals) in LtP: 100 μM compound, immediate, with DFO and DTPA
# Procedure: Detection of superoxide radicals was performed using CMH as reaction partner and measuring the formed stable nitroxyl radicals by electron spin resonance (ESR) spectroscopy. Measurements were performed in PBS (136 mM NaCl, 1.15 mM KH2PO4, 14 mM Na2HPO4, and 2.7 mM KCl, pH 7.4) containing 15 mM glucose, 400 μM CMH, and 100 μM DFO (desferrioxamine mesylate) and 25 μM DTPA. Usually, these assays are performed in the presence of iron chelators (DFO and DTPA) to prevent CMH interaction with free Fe^3+ leading to CM^● unrelated to superoxide radicals. Before the measurements, LtP suspensions were washed twice with PBS to remove the medium. Typical experiments contained 5 × 10^8 LtP cells/ml. Stock solutions of EO compounds dissolved in DMSO were added. The influence of Asc (6–700 μM) on the CMH oxidation rate by LtP was assessed immediately and after prolonged incubation time (1 hr between Asc and CMH addition). The influence of iron‐dependent Asc activation in LtP on CMH oxidation was studied in the absence of iron chelators DFO and DTPA. Prior to the ESR measurement, 400 μM CMH was added. Afterwards, 17 μl of suspension was aspirated in gas‐permeable Teflon tubes (ID 0.7 mm). This capillary tube was placed in the resonator of the ESR instrument (Bruker EMX, split ring MD5, Germany), and 10 sequential measurements were performed. The following instrument settings were used: microwave frequency 9.682 GHz, modulation frequency 100 kHz, modulation amplitude 1 G, time constant 0.082 s, center field 3,446 G, scan rate 71 G/min, sweep width 100 G, scan time 84 s, and attenuation CMH: 7.96 × 10^3. From the ESR spectra, the middle peak intensity was retrieved, and concentrations of oxidized CMH were obtained by comparison with a standard curve prepared from 3‐carboxy‐proxyl solutions with defined concentrations. Four replicate measurements were performed for each condition.
# [2] = tested on: Leishmania tarentolae promastigotes (LtP); experiment: Mitochondrial coupling (RCR) in LtP, Clark-type electrode, short- and long-term incubation; type: cell-based; conditions: 200 μM
# Procedure: Direct inhibitors of mitochondrial ETC instantaneously influence mitochondrial oxygen consumption. To assay the effect of EO compounds on oxygen consumption of LtP, a Clark‐type oxygen electrode (Hansatech, Germany) and software MCREC were used. LtP at approximately 10^8 cells/ml in YEM (25 °C) were added and treated with increasing concentrations of EO compounds between 10 and 200 μM and for EO 5.6–89.6 μg/ml. Each concentration was assayed in quadruplicates, and the results were expressed as percentage of oxygen consumption in comparison with the untreated control LtP. The highest concentration of the vehicle (1% DMSO) caused only 2% inhibition. The uncoupling effect in short‐term and long‐term (0, 6, and 24 hr) incubations with Asc (200 μM) was studied in Oligo‐inhibited (5 μM) and uncoupler‐stimulated (0.5 μM CCCP) LtP in Schneider's medium supplemented with 6 μM hemin. Four replicates were performed for each concentration.
# [3] = tested on: Leishmania amazonensis promastigotes (LaP); parameters: method as in Monzote, Garcia, et al., 2014; conditions: after 72 hr of incubation; ref Monzote, Garcia, et al., 2014; cited from earlier work
# [4] = parameters: method as in Rappoport & Frankel, 1967; conditions: ref Rappoport & Frankel, 1967; cited from earlier work
# [5] = tested on: Leishmania tarentolae promastigotes (LtP); experiment: Low molecular thiols in LtP, CMFDA method; type: cell-based; conditions: 5 hr incubation at 26 °C, PBS/glucose
# Procedure: LtP were centrifuged twice (1,800 g, 10 min, 20 °C), the cell pellets were resuspended in PBS/glucose (15 mM), and the cell number was adjusted to 1 × 10^7/ml. Aliquots (250 μl) were added to 96‐well plates (black, nontreated plates), along with compound stocks (keeping a maximum of 2% DMSO). Following a 5‐hr incubation at 26 °C, plates were centrifuged (1,800 g, 10 min, 20 °C), and 200 μl of supernatant was removed. To the remaining cell suspension, 100 μl of CMFDA in PBS was added giving a final concentration of 5 μM. After gentle shaking, the cells were incubated for 15 min at 37 °C in the dark. The fluorescence of the methyl fluorescein (MF)‐thiol adduct (Sarkar, Mandal, Singh, Sundar, & Chatterjee, 2009) was measured at 15, 30, 45, and 60 min at 485 nm (excitation wavelength) and 530 nm (emission wavelength) using a plate reader (PerkinElmer Enspire, Germany). The OD600 nm was determined for cell count, and the measured fluorescence intensity was normalized to the cell number. Three replicate measurements were performed for each condition.
Compound,CM● formation (superoxide radicals) in LtP [1],"CMH oxidation (superoxide radical formation) triggered in LtP ([1]; Asc 6–700 μM, 0 hr vs 1 hr incubation, with/without iron chelators)",Effect on mitochondrial coupling in LtP ([2]; immediately after addition),RCR with respect to vehicle‐treated LtP ([2]; prolonged incubation (6 and 24 hr)),Membrane potential of LaP (JC‐1) [3],pKa value [4],Low molecular thiol status (rate of thiol‐MF adduct formation) [5]
"CC(C)C12C=CC(C)(CC1)OO2 (centres unmarked) [Asc, ascaridole]",only slightly increased,increasingly effective upon prolonged incubation and in the absence of iron chelators,only little effects,declined,decrease,–,–
"Cc1ccc(C(C)C)cc1O [Car, carvacrol]",–,–,–,–,–,around 10,–
"C=C1CC[C@H]2O[C@]2(C)CC[C@@H]2[C@@H]1CC2(C)C [Caryo, caryophyllene oxide]",only slightly increased,–,–,–,–,–,decrease
